According to patent US20240262795A1, “PYRAZINE COMPOUNDS AS INHIBITORS OF FLT3” (Biomea Fusion, Inc., priority 2021, published 2024):
Read-outs that look alike come from different tables or passages of the source.

How the values were obtained:
FLT3-ITD = target: T1, FLT3-ITD (Homo sapiens, UniProt P36888, DUP595-601); experiment: FLT3-ITD Lance Ultra TR-FRET kinase assay; format: biochemical
T1 construct: purchased Signalchem F-12-12CG-10
T1 sequence (P36888 with tags, fused parts or gaps DUP595-601 limits assumed): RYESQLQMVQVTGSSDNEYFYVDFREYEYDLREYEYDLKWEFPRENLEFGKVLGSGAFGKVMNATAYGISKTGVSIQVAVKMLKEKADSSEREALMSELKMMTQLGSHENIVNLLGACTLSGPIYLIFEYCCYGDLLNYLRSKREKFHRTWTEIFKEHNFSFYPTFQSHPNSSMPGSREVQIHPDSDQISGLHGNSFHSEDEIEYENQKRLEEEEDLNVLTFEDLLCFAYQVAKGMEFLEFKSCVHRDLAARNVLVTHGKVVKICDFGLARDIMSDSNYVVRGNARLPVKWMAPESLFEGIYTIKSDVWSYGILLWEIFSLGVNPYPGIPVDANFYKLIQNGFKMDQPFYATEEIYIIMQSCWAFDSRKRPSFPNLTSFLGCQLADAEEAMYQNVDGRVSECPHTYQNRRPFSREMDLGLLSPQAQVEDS
How it was run: (§1)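 Lance Ultra TR-FRET with 50 nM ULight-JAK-1 (Tyr1023) peptide, Eu-anti-phosphotyrosine (PT66) detection, in HEPES pH 7.5 buffer at 23° C, 30 min enzyme/compound preincubation. WT: 0.5 nM enzyme, 100 μM ATP, 30 min; ITD: 0.0625 nM, 50 μM ATP, 60 min. IC50 by four-parameter fit of 11-point 3× dilutions.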

WT FLT3 = target: T2, WT FLT3 (Homo sapiens, UniProt P36888); experiment: WT FLT3 Lance Ultra TR-FRET kinase assay; format: biochemical
T2 construct: purchased Invitrogen PR4666C
T2 sequence (P36888 564-993 limits assumed): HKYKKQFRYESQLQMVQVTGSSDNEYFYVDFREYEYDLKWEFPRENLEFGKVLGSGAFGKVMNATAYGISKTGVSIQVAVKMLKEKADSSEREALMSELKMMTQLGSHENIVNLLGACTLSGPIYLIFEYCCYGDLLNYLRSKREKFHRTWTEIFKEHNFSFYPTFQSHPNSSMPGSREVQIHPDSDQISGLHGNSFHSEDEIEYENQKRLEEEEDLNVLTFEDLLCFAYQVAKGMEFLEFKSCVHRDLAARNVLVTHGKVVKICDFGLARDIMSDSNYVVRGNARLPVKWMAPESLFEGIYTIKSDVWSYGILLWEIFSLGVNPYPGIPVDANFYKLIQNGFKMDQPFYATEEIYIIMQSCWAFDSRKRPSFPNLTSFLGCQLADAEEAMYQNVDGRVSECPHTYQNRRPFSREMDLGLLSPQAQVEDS
How it was run: as §1

MOLM-13 = experiment: Proliferation inhibition, CellTiter-Glo, MOLM-13; format: cell-based, human; conditions: for IC50: Homo sapiens, MOLM-13 cells
How it was run: (§2)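 About 10,000 cells per well in RPMI-1640 with 10% FBS. Compounds added 2 h after seeding at eight concentrations in duplicate (0.2% DMSO as 100% proliferation), then incubated ~96 h at 37° C, 5% CO2. ATP measured by CellTiter-Glo luminescence; IC50 from four-parameter logistic fit.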

K-562 = experiment: Proliferation inhibition, CellTiter-Glo, K-562; format: cell-based, human; conditions: for IC50: Homo sapiens
How it was run: as §2

MV-4-11 = experiment: Proliferation inhibition, CellTiter-Glo, MV-4-11; format: cell-based, human; conditions: for IC50: Homo sapiens
How it was run: as §2

[1] = 96 h, IC50 (4 days), CellTiter-Glo, read-out: MOLM-13 IC50
[2] = K562, 96 h, K-562 cells, IC50 (4 days), CellTiter-Glo, read-out: K-562 IC50
[3] = MV4-11, 96 h, MV-4:11 cells, IC50 (4 days), CellTiter-Glo, read-out: MV-4:11 IC50

Row | Compound | IC50 (FLT3-ITD) | IC50 (WT FLT3) | Ymax in MOLM-13 cells (MOLM-13) | IC50 (MOLM-13; [1]) | IC50 (MOLM-13; read-out: IC50 in MOLM-13 cells) | IC50 (K-562; [2]) | IC50 (K-562; K562 cells, read-out: IC50 in K562 cells) | Ymax in K562 cells (K-562; K562 cells) | IC50 (MV-4-11; [3]) | IC50 (MV-4-11; MV4-11 cells, read-out: IC50 in MV4-11 cells) | Ymax in MV4-11 cells (MV-4-11; MV4-11 cells)
1 | C=CC(=O)Nc1cc(Nc2nc(N[C@H]3CC[C@@](C)(O)CC3)c(CC)nc2C(N)=O)ccc1C [Compound C-3, reference compound] | > 1 nM | > 1 nM | 0% | > 500 nM | > 100 nM | > 500 nM | > 100 nM | 0% | > 500 nM | > 100 nM | 6.8%
2 | C=CC(=O)N(C)CC(=O)NCCc1cccc(Nc2nc(N(C)C(C)C)c(CC)nc2C(N)=O)c1 [Compound 308, 6-ethyl-5-(isopropyl(methyl)amino)-3-((3-(2-(2-(N-methylacrylamido)acetamido)ethyl)phenyl)amino)pyrazine-2-carboxamide] | 0.101 to 0.2 nM | 0.201 to 0.5 nM | – | 1 to 10 nM | – | > 500 nM | – | – | 1 to 10 nM | – | –
3 | C=Cc1nc(C(N)=O)c(Nc2cccc(CCNC(=O)CN(C)C(=O)/C=C/CN(C)C)c2)nc1N(C)C(C)C [Compound 328, (E)-3-((3-(2-(2-(4-(dimethylamino)-N-methylbut-2-enamido)acetamido)ethyl)phenyl)amino)-5-(isopropyl(methyl)amino)-6-vinylpyrazine-2-carboxamide] | 0.201 to 0.5 nM | 0.201 to 0.5 nM | – | 10 to 100 nM | – | > 500 nM | – | – | < 1 nM | – | –
